Test results published in US20100099614A1, “Antimicrobial Peptides and Methods of Use” (priority 2008, published 2010).

Experiments:
Assay in all cases: Antifungal activity (MIC50/MIC90)
Type in all cases: cell-based
[1] = test system: Candida albicans (ATCC 24433)
Excerpt: (§1) The filamentous fungal and yeast strains used in this study were either purchased from American Type Culture Collection, Manassas, Va. (ATCC) or were generous gifts from various institutions: Aspergillus nidulans (AZN 2867), Absidia corymbifera (clinical isolate), Rhizomucor spp. (clinical isolate), Rhizopus microsporus (clinical isolate), Rhizopus oryzae (AZN 8892), Scedosporium prolificans (clinical isolate), Candida albicans (ATCC 24433).
(§2) Fungal spores (final concentration 10^4 spores/ml) were suspended in ½ Potato Dextrose Broth (Difco), and the yeast strains were suspended at a starting A600=0.001 in the yeast complete medium YPG (1% yeast extract, 1% peptone, 2% glucose). The medium was supplemented with tetracycline (10 μg/ml) and cefotaxim (100 μg/ml), and dispensed by aliquots of 80 μl into wells of a microplate containing 20 μl of either water or the sample to be analyzed. Growth of fungi and yeasts was evaluated after 24 h at 30° C. by light microscopy and after 48 h by measuring the culture absorbance at 595 nm using a microplate reader. Under conditions where the antifungal assay was performed in the presence of salt, the ½ Potato Dextrose Broth medium was prepared in phosphate-buffered saline, 137 mM NaCl.
(§3) The procedure used for the determination of the minimal inhibitory concentration (MIC) was identical to that for the antifungal assay. The MIC values are expressed as the lowest peptide concentration that causes 90% or 50% growth inhibition. The fungicidal effects of the synthetic peptides in the MIC assay were verified by reinoculation of the yeasts in potato dextrose broth at the end of the incubation time.

[2] = test system: Scedosporium prolificans (clinical isolate)
Excerpt: as §1, §2, §3

[3] = test system: Aspergillus nidulans (AZN 2867)
Excerpt: as §1, §2, §3

Question: Which results are given for CC[C@@H](C)[C@@H](NC(=O)[C@@H](C)NC(=O)[C@@H](CCCCN)NC(=O)[C@@H](CC(C)C)NC(=O)[C@@H](C)NC(=O)[C@H](NC(=O)[C@@H](Cc1c[nH]cn1)NC(=O)[C@@H](CC(C)C)NC(=O)[C@H](NC(=O)[C@H](NC(=O)[C@@H](CCCCN)NC(=O)[C@@H](CCCCN)NC(=O)[C@@H](C)NC(=O)[C@@H](CO)NC(=O)[C@@H](CCCCN)NC(=O)[C@@H](Cc1ccccc1)NC(=O)[C@H](NC(=O)[C@@H](CCCCN)NC(=O)[C@@H](CC(C)C)NC(=O)[C@@H](Cc1ccccc1)NC(=O)[C@@H](CO)NC(=O)[C@@H](CCCCN)NC(=O)[C@@H](Cc1c[nH]c2ccccc12)NC(=O)[C@@H](CCCCN)NC(C)=O)[C@H](C)O)[C@H](C)O)C(C)C)[C@H](C)O)C(=O)N[C@H](CO)C(=O)N[C@H](CO)C(N)=O [D1]?
Answer: C. albicans MIC50 ([1]; inhibits 50% of fungal growth): 50.0 µg/mL; C. albicans MIC90 ([1]; inhibits 90% of fungal growth): 50.0 µg/mL; S. prolificans MIC50 ([2]; inhibits 50% of fungal growth): 50.0 µg/mL; S. prolificans MIC90 ([2]; inhibits 90% of fungal growth): 50.0 µg/mL; A. nidulans MIC50 ([3]; inhibits 50% of fungal growth): 9.4 µg/mL; A. nidulans MIC90 ([3]; inhibits 90% of fungal growth): 50.0 µg/mL
